pIC50: −log10 of the molar value.
Each compound was assayed against T1, human S1P4 (Homo sapiens, UniProt O95977) (assay: S1P receptor calcium mobilization assay, agonist format). Conditions: recombinant CHEM cells expressing human S1P4, calcium flux, FLIPR.
T1 construct: host or cells: recombinant CHEM cells
T1 sequence (O95977 1-384): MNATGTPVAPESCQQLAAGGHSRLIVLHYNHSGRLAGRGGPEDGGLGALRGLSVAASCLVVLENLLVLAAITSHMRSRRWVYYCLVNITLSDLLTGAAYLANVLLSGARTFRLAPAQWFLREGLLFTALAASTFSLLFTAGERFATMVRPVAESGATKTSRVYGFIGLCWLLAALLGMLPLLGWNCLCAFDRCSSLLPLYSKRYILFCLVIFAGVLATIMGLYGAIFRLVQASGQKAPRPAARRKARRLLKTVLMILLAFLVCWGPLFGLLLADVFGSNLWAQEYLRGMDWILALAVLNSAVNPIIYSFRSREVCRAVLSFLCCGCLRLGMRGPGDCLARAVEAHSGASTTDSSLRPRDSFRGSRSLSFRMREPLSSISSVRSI
Type: cell-based
Protocol: (§1) Compounds that are not specific for a particular S1P receptor can cause undesirable side effects. Accordingly, compounds are tested to identify those that are specific. Accordingly, the test compounds are tested in a calcium mobilization assay/S1P receptor activity assay. The procedure is essentially as described in Davis et al. (2005) Journal of Biological Chemistry, vol. 280, pp. 9833-9841, which is incorporated by reference in its entirety with the following modifications. Calcium mobilization assays are performed in recombinant CHEM cells expressing human S1P1, S1P2, S1P3, S1P4, or S1P5 purchased from Millipore (Billerica, Mass.). To detect free intracellular calcium, S1P1, S1P2, S1P3, S1P4, or S1P5 cells are loaded with FLIPR Calcium 4 dye from Molecular Devices (Sunnyvale, Calif.). Cells are imaged for calcium mobilization using a FLIPR^TERA equipped with a 96-well dispense head.
Agonist percentage activation determinations were obtained by assaying sample compounds and referencing the Emax control for each receptor profiled. Antagonist percentage inhibition determinations were obtained by assaying sample compounds and referencing the control EC80 wells for each receptor profiled. […]
Assay was read for 180 seconds using the FLIPR^TETRA (This assay run added sample compounds and reference agonist to respective wells). […]
For `CC1(C)CCC(Oc2ccc3cc(CN4CC(C5CCCC(C(=O)O)C5)C4)ccc3c2)CC1` (stereo not shown) [Example 62, 3-(1-((6-((4,4-dimethylcyclohexyl)oxy)naphthalen-2-yl)methyl)azetidin-3-yl)cyclohexanecarboxylic acid], the pIC50 was ≥ 6.30.

These compounds were tested against T2, Human ATX protein (Homo sapiens, UniProt Q13822) (assay: ATX biochemical FRET assay with FS-3 substrate). Conditions: FS-3 2 μM, ATX 1.0 μg/mL, room temperature 2 hours, fluorescence 485/538 nm.
T2 construct: made in house
In short: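 Purified human ATX (1.0 μg/mL final) preincubated with compound 30 min at room temperature in Tris pH 7.4 buffer with NaCl, KCl, CaCl2, MgCl2 and 1 mg/mL fatty acid-free BSA. FS-3 added to 2 μM final; 2 h at room temperature in the dark, fluorescence at ex 485/em 538 nm.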
`CCC1CCC(Oc2ccc3cc(C(CC)N4C5CCCC4CC(C(=O)O)C5)ccc3c2C(F)(F)F)CC1` [Example 297, 9-((R)-1-(6-(((1s,4S)-4-ethylcyclohexyl)oxy)-5-(trifluoromethyl)naphthalen-2-yl)propyl)-9-azabicyclo[3.3.1]nonane-3-carboxylic acid] was tested, and the pIC50 was ≥ 6.60.

Each compound was assayed against T1, human S1P4 (assay: S1P receptor calcium mobilization assay, antagonist format). Conditions: recombinant CHEM cells expressing human S1P4; calcium flux, FLIPR; stimulated with EC80 of reference agonist.
Type: cell-based
Protocol: as §1
Agonist percentage activation determinations were obtained by assaying sample compounds and referencing the Emax control for each receptor profiled. Antagonist percentage inhibition determinations were obtained by assaying sample compounds and referencing the control EC80 wells for each receptor profiled.
Sample compounds were plated in an eight-point, four-fold dilution series in duplicate with a top concentration of 10 μM. The concentrations described here reflect the final concentration of the compounds during the antagonist assay. During the agonist assay the compound concentrations were 1.25 fold higher to allow for the final desired concentration to be achieved with further dilution by EC80 of reference agonists during the antagonist assay.
Reference agonists were handled as mentioned above serving as assay control. The reference agonists were handled as described above for Emax.
Assay was read for 180 seconds using the FLIPR^TETRA (This assay run added sample compounds and reference agonist to respective wells). At the completion of the first “Single Addition” assay run, assay plate was removed from the FLIPR^TETRA and placed at 25° C. for seven (7) minutes.
Using the EC80 values determined during the agonist assay, stimulated all pre-incubated sample compound and reference antagonist (if applicable) wells with EC80 of reference agonist. Read for 180 seconds using the FLIPR^TETRA (This assay added reference agonist to respective wells-then fluorescence measurements were collected to calculate percentage inhibition values).
`CC(C)[C@H]1CC[C@H](Oc2ccc3cc(CNC45CCC(C(=O)O)(CC4)CC5)ccc3c2)CC1` [Example 4, 4-(((6-((trans-4-isopropylcyclohexyl)oxy)naphthalen-2-yl)methyl)amino)bicyclo[2.2.2]octane-1-carboxylic acid] was tested, and the pIC50 was ≥ 6.60.
For `O=C(O)C12CCC(NCc3ccc4cc(OC5CCC6(CCCCC6)CC5)ccc4c3)(CC1)CC2` [Example 11, 4-(((6-(spiro[5.5]undecan-3-yloxy)naphthalen-2-yl)methyl)amino)bicyclo[2.2.2]octane-1-carboxylic acid], the pIC50 was ≥ 6.60.
`CC(C)(C)[C@H]1CC[C@H](Oc2ccc3cc(CN4CCN(c5ncccn5)CC4)ccc3c2)CC1` [Example 44, 2-(4-((6-((trans-4-(tert-butyl)cyclohexyl)oxy)naphthalen-2-yl)methyl)piperazin-1-yl)pyrimidine] was tested, and the pIC50 was ≥ 6.30.
In the case of `CC(C)(C)[C@H]1CC[C@H](Oc2ccc3cc(CN4CCN(c5ccncc5)CC4)ccc3c2)CC1` [Example 46, 1-((6-((trans-4-(tert-butyl)cyclohexyl)oxy)naphthalen-2-yl)methyl)-4-(pyridin-4-yl)piperazine], the pIC50 was ≥ 6.30.
`CC(C)(C)[C@H]1CC[C@H](Oc2ccc3cc(CN4CC(C5CCCC(C(=O)O)C5)C4)ccc3c2)CC1` (stereo partly drawn) [Example 58, 3-(1-((6-((trans-4-(tert-butyl)cyclohexyl)oxy)naphthalen-2-yl)methyl)azetidin-3-yl)cyclohexanecarboxylic acid] was tested, and the pIC50 was ≥ 7.00.
In the case of `CC(C)(C)[C@H]1CC[C@H](Oc2ccc3cc(CN4CC5(COC5)C4)ccc3c2)CC1` [Example 67, 6-((6-((trans-4-(tert-butyl)cyclohexyl)oxy)naphthalen-2-yl)methyl)-2-oxa-6-azaspiro[3.3]heptane], the pIC50 was ≥ 6.30.
`CC(C)(C)[C@H]1CC[C@H](Oc2ccc3cc(CN4CC5CC(C4)C5C(=O)O)ccc3c2)CC1` (stereo partly drawn) [Example 74, 3-((6-((trans-4-(tert-butyl)cyclohexyl)oxy)naphthalen-2-yl)methyl)-3-azabicyclo[3.1.1]heptane-6-carboxylic acid] was tested, and the pIC50 was ≥ 7.00.
With `CC(C)(C)[C@H]1CC[C@H](Oc2ccc3cc(CNC45CCC(C(=O)O)(CC4)C(O)C5)ccc3c2)CC1` (stereo partly drawn) [Example 80, 4-((6-(trans-4-tert-Butylcyclohexyloxy)naphthalen-2-yl)methylamino)-2-hydroxybicyclo[2.2.2]octane-1-carboxylic acid] the pIC50 was ≥ 6.60.
